From US9938316B2, “Selective inhibitors of α2 isoform of Na,K-ATPase and use thereof for reduction of intra-ocular pressure and as cardiotonic agents” (priority 2013, dated 2018)

Experiments:
[1] = biological target: Na,K-ATPase α1β1 isoform complex (Homo sapiens, UniProt P05023); test: biochemical; conditions: Ki ± S.E. α1, Table 2; α1β1
Experimental: Methods for transformation, culture of P. pastoris clones, protein expression of Na,K-ATPase human isoforms (α1β1, α2β1, α3β1), membrane preparation, solubilization of membranes in DDM, and purification on BD-Talon beads have been described in detail (6-9, 11, 25). In initial experiments the three purified isoform complexes (0.3-0.5 mg/ml) were eluted from the BD-Talon beads in a solution containing Imidazole 170 mM, NaCl 100 mM; Tricine.HCl 20 mM pH 7.4; C12E8, 0.1 mg/ml; SOPS 0.07 mg/ml cholesterol 0.01 mg/ml, glycerol 25%. In later experiments the isoforms complexes were reconstituted with purified FXYD1 on the BD-Talon beads together as described in detail in (10, 11) prior to elution of α1β1FXYD1, α2β1FXYD1 and α3β1FXYD1 complexes. The proteins were stored at −80° C. Protein concentration was determined with BCA (B9643 Sigma).
Inhibition of Na,K-ATPase activity of the detergent-soluble α1β1, α2β1, and α3β1 complexes by CG's was determined as described (6) using either the αβ or αβFXYD1 complexes. […] The K0.5K was estimated by varying K concentration in a medium containing a fixed total K+choline chloride of 60 mM, and constant NaCl of 140 mM. Curves were fitted to the Hill function v=Vmax*[S]^n/([S]^n+K^n), where S is the K concentration, n is the Hill coefficient and K^n is K0.5K. For comparison of different curves the ratio v/Vmax for each curve was calculated and replotted. In experiments to assess inhibition of Na,K-ATPase activity by cardiac glycosides of the present invention, the percent inhibition VCG/V0 was calculated and Ki values were obtained by fitting the data to the function VCG/V0=Ki/([CG]+Ki)+ c. Inhibition was estimated in 3-8 separate experiments and average Ki values ±SEM were calculated. Significance of differences between Kiα1 and Kiα2 was calculated by the unpaired Student's t-test (p values). […] P values <0.05 were considered significant.

[2] = system: intra-ocular pressure (IOP) of rabbits; test: 4-aminopyridine (4AP)-induced ocular hypertension in rabbits; assay type: in vivo, New Zealand white rabbits; conditions: for Time IOP is held at the low level / Time IOP is maintained at the low level: single drop; for Time IOP is maintained at the low level: 1 mM; for Order of relative effects on IOP: all at 0.1 mM, 1.5 hours after 4AP, average of three experiments
[3] = system: intra-ocular pressure (IOP) of rabbits; test: IB-MECA-induced ocular hypertension in rabbits; assay type: in vivo, New Zealand white rabbits; conditions: 1 mM applied after IB-MECA
Experimental: IB-MECA induces acute ocular hypertension by a different and well-defined mechanism. Namely, IB-MECA is a selective agonist of the A3-adenosine receptor, and rises aqueous humour inflow and IOP by activating Cl channels of the NPE cells (18, 19). […] FIG. 8A depicts the effects of DMe (0.1-1 mM) applied prior to the IB-MECA, and a similar result was obtained for DGlyN (not shown). FIG. 8B depicts effects of digoxigenin, DGlyN and DMe (1 mM) applied after the IB-MECA.
New Zealand white rabbits (3-3.5 kg) about 1 year old, of either sex, were housed individually in separate cages in animal room conditions on a reversed, 12-hour dark/light cycle. For the experiments the animals were transferred to rabbit restrainers in a quiet and calm atmosphere (FIG. 1). […] Animal care and treatment were subject to the approval of the institutional committee for animal experiments, Weizmann Institute IACUC permission (no 04270911-2).
IOP (mm Hg) of rabbits was measured using a calibrated Pneumatonometer (Model 30, Reichert technologies, FIG. 1). A local anesthetic Oxybuprocaine HCl (0.4%, 25 μl) was applied to each cornea about a minute before IOP measurements. Two baseline IOP readings were taken before topical administration of the CG (or PBS as control) and after half an hour (Zero time). […] At zero time one drop of 4AP (40 mg/ml, 30 μl) or IB-MECA (1 μM, 30 μl) was administered to both eyes of each rabbit IOP measurements were made at different times as indicated in each experiment. In the experiments for which the IOP was elevated for several hours, 4AP was added every […] or IB-MECA every 2 hours. […] In all cases the figures depict the average effect on IOP (i.e for four or six eyes) compared to control ±SEM. […] Significance of differences from the control was calculated by the unpaired Students t-test (p values), p values <0.05 were considered significant. Corneal thickness (μm) was measured using an ultrasonic pachymeter (Sonogage pachometer, Cleveland, USA), before and during the experiment with CG and 4AP treatments. The values represent averages of three independent measurements for each eye.

[4] = system: purified α2β1FXYD1 complexes of Na,K-ATPase; test: Dissociation of cardiac glycosides from the α2β1 isoform complex; conditions: α2β1 isoform complex, 37° C.
Experimental: Since the principal isoform in NPE cells is α2 and dissociation from the pump is expected to affect the duration of the effects on IOP, the dissociation rates of different cardiac glycosides from the purified α2β1 isoform were compared.
Purified α2β1FXYD1 complexes (0.3-0.5 mg/ml) were incubated for 30 minutes at 37° C. in a medium containing ATP, 1 mM; NaCl 100 mM; MgCl2, 4 mM Histidine.HCl 25 mM pH 7.4 without (Control) or with 1 μM of different cardiac glycosides. The enzyme solutions were then diluted 100-fold into a medium containing 100 mM NaCl, 5 mM KCl, 1 mM EDTA (Tris), 0.005 mg/ml C12E8, 0.01 mg/ml SOPS, and 0.001 mg/ml cholesterol and incubated at 37° C. for different lengths of time. Aliquots were removed at different times and Na,K-ATPase activity was measured in triplicate over 0.5 minutes (digoxigenin) or 2 minutes (other cardiac glycosides) in the standard activity medium containing 200 μM ATP. The activity of test samples was divided by the activity of the control samples and the time-course for reversal of inhibition was analyzed by fitting the data to the function vt=v∞e^−kt+c. Normalized curves for comparison of different experiments (e.g. as in FIG. 9) were obtained by subtracting the constant value c from each value of the activity and re-fitting the ratio vt/v∞=1−e^−kt.

SMILES | Ki [1] [nM] | Time IOP is held at the low level ([2]; 0.2 mM, 4AP every two hours) [h] | Time IOP is held at the low level ([2]; 0.5 mM, 4AP every two hours) [h] | Time IOP is maintained at the low level ([2]; 4AP every two hours) | Time IOP is held at the low level ([2]; 2 mM, 4AP every two hours) [h] | Order of relative effects on IOP [2] | Duration of the effect compared with digoxigenin [3] | Effect on IB-MECA-induced ocular hypertension [3] | k ± SEM (rate of dissociation) [4] | Wash-out time/rate compared with other cardiac glycosides ([2]; equal concentrations, 4AP every two hours)
CC1CN(C)CCC(OC2C(O)CC(OC3C(O)CC(OC4CCC5(C)C(CCC6C5CC(O)C5(C)C(C7=CC(=O)OC7)CCC65O)C4)OC3C)OC2C)O1 (stereo not shown) [DMe] | 101 ± 4.4 | 2.5 | 4.5 | about 5.5 hours | 5.8 | DGlyN≈DMe≈digoxigenin>digoxin>ouabain | significantly greater | almost the same as seen with 4AP | 0.0067 ± 0.004, 3 min^−1 | 
CC1CN(CC(N)=O)CCC(OC2C(O)CC(OC3C(O)CC(OC4CCC5(C)C(CCC6C5CC(O)C5(C)C(C7=CC(=O)OC7)CCC65O)C4)OC3C)OC2C)O1 (stereo not shown) [DGlyN] | 152 ± 5.5 |  |  | 3.5 h |  | DGlyN≈DMe≈digoxigenin>digoxin>ouabain | significantly greater | almost the same as seen with 4AP | 0.009 ± 0.001, 3 min^−1 | slightly faster than for DMe
